Legend:
Cs1,6RhaT = target: T1, Cs1,6RhaT (Citrus sinensis, UniProt A7ISD3); assay: substrate feeding of E. coli expressing the GST fusion, UPLC-DAD-QToF/MS of product; type: cell-based; settings: product diosmin; 100 μM substrate, 28 °C, 3 h; whole culture
T1 sequence (A7ISD3 1-475): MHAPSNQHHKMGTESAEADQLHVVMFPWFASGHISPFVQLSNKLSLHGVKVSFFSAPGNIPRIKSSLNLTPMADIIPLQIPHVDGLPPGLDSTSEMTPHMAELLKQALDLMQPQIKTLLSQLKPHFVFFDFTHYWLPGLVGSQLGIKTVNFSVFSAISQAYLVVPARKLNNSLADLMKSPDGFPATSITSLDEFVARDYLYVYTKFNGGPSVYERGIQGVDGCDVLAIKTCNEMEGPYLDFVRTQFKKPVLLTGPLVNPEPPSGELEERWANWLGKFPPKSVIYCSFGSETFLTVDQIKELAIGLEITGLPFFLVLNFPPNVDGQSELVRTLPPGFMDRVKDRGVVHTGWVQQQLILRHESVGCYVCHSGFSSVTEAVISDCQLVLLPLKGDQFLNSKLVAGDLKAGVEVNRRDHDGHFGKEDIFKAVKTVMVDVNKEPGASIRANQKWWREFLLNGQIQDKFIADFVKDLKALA

PaF4′OMT = target: T2, PaF4′OMT (Plagiochasma appendiculatum, UniProt A0A1X9Y2Y6); assay: substrate feeding of E. coli expressing the GST fusion, HPLC of product; type: cell-based; settings: product diosmetin; 100 μM substrate (methods name diosmetin, results name luteolin), 28 °C, 3 h; whole culture
T2 sequence (A0A1X9Y2Y6 1-391): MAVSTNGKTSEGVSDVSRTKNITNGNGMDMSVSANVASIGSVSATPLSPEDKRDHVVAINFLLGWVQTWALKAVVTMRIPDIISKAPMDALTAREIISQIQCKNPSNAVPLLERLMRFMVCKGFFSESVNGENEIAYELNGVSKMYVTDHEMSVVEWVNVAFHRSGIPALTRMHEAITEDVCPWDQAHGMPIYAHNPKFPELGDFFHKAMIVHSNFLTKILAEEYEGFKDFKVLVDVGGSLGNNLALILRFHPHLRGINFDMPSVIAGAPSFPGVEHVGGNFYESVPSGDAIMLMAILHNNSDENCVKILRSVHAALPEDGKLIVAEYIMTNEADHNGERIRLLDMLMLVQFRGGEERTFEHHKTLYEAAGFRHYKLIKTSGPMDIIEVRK

| SMILES | substrate feeding of E. coli expressing the GST fusion, UPLC-DAD-QToF/MS of prod (Cs1,6RhaT) | substrate feeding of E. coli expressing the GST fusion, HPLC of product (PaF4′OMT) |
| --- | --- | --- |
| COc1ccc(-c2cc(=O)c3c(O)cc(O[C@@H]4O[C@H](CO)[C@@H](O)[C@H](O)[C@H]4O)cc3o2)cc1O [diosmetin 7-O-β-D-glucopyranoside] | the cells expressing Cs1,6RhaT produced the most diosmin | – |
| O=c1cc(-c2ccc(O)c(O)c2)oc2cc(O)cc(O)c12 [luteolin] | – | PaF4′OMT produced the most diosmetin from luteolin |
